Measured values taken from patent US8404670B2 (Sunovion Pharmaceuticals Inc., priority 2009, dated 2013).

Biological target: T1, human histamine H3 receptor (Homo sapiens, UniProt Q9Y5N1)
T1 construct: host or cells: cells expressing the human H3 receptor
Test: H3 GTPγS assay (SPA method), histamine H3 in vitro assay
Assay type: biochemical
Settings: GTPγ[35S] binding to membranes of cells expressing human H3; antagonist mode with R-γ-Me-Histamine at EC80 (30 nM); in one embodiment HCl salts tested; read-out: Potency (functional potency as indicated by IC50)

T1 sequence (Q9Y5N1 whole entry): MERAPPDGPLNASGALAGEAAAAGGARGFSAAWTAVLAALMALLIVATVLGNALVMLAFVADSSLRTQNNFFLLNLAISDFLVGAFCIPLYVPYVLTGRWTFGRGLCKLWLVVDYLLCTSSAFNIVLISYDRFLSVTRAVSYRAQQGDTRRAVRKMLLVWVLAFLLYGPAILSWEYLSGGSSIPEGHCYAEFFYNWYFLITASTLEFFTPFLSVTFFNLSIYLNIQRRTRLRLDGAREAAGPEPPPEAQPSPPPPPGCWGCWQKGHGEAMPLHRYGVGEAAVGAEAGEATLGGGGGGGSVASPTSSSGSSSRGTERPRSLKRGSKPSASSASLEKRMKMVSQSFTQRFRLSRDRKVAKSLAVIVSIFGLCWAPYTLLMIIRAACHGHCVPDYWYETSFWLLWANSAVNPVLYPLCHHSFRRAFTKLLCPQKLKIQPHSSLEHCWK

FC1CCCN(c2ccc3c(c2)nc2n3CCN(C3CCC3)CC2)C1 (stereo not shown) [Compound 180, 3-cyclobutyl-8-(3-fluoropiperidin-1-yl)-2,3,4,5-tetrahydro-1H-benzo[4,5]imidazo[1,2-d][1,4]diazepine]
IC50: ≤ 10 nM

Brc1ccc2c(c1)nc1n2CCN(C2CCC2)CC1 [Compound 21]
IC50: ≤ 1000 nM

CN(Cc1ccc2c(c1)nc1n2CCN(C2CCC2)CC1)C(=O)OCc1ccccc1 [Compound 142, benzyl((3-cyclobutyl-2,3,4,5-tetrahydro-1H-benzo[4,5]imidazo[1,2-d][1,4]diazepin-8-yl)methyl)(methyl)carbamate]
IC50: ≤ 100 nM

c1ccc(C2CCN(c3ccc4c(c3)nc3n4CCN(C4CCC4)CC3)CC2)cc1 [Compound 227, 3-cyclobutyl-8-(4-phenylpiperidin-1-yl)-2,3,4,5-tetrahydro-1H-benzo[4,5]imidazo[1,2-d][1,4]diazepine]
IC50: ≤ 100 nM
